Assay results taken from patent publication US20240424071A1, “NOVEL MUTANT OF RECOMBINANT GANODERMA LUCIDUM IMMUNOMODULATORY PROTEIN AND USE THEREOF” (CHANGCHUN INTELLICROWN PHARMACEUTICAL CO., LTD., priority 2021, published 2024).

Legend:
[1] = tested on: LI6669 human liver cancer orthotopic transplantation tumor; experiment: LI6669 human liver cancer orthotopic transplantation tumor model (PDX), survival; assay type: in vivo, BALB/c nude mouse; details: Group 2, 50 mg/kg QD p.o. for 28 days; solvent control […] days
From the text: LI6669 is a HuPrime® orthotopic transplantation model originated from a patient's liver cancer.
Tumor tissue was collected from a LI6669 tumor-bearing mouse, a HuPrime® orthotopic transplantation model of liver, and cut to tumor pieces with a diameter of 2-3 mm, which were inoculated into the upper left lobe of liver of a Balb/c nude mouse.
When the average tumor volume of the tumor-bearing mice reached about 50-150 mm^3, the mice were randomly grouped by weight according to Table 3 of “3. Design of Experiment”. The grouping day was set as Day 0, and the administration began on Day 1. […].
After tumor cell inoculation, route monitoring comprises the tumor growth and the effect of treatment on normal behaviors of animals, specially including the activity, food intake and water consumption, weight gain or loss, eyes, fur of experimental animals, and other abnormal conditions. The clinical symptoms observed during the experiments were all recorded in the original data. After drug administration, the mice were measured twice a week for their weights. Observation was made to record the mouse requiring euthanasia and the corresponding survival time.

[2] = tested on: human non-small cell lung cancer cell line A549; experiment: Killing effect on tumor cells, CellTiter-Fluor Cell Viability Assay; assay type: cell-based; details: 48 h, 2% fetal bovine serum medium
Procedure: CellTiter™-Flour Cell Viability Assay Reagent kit was used to detect the killing effects of the EAEA+rLZ-8 mutant (SEQ ID NO: 14) and the […]+rLZ-8 mutant (SEQ ID NO: 15) on tumor cells (human non-small cell lung cancer cell line A549) in vitro. The recombinant protein was diluted with 2% fetal bovine serum culture medium to produce test solutions with concentrations of 100 μg/mL, 50 μg/mL, 25 μg/mL, 12.5 μg/mL, 6.25 μg/mL, 3.125 μg/mL, 1.5625 μg/mL, 0.78125 μg/mL, 0.390625 μg/mL, 0.1953125 μg/mL, and 0.09765625 μg/mL, total 11 concentrations.
The dilutions were added into a 96-well plate containing A549 cells with 100 μL/well. For each group of concentration, 3 parallel wells were set and marked. A cell control group (i.e., cells only) was set at 100 μL/well, with 6 parallel wells. The plates were cultured in a CO2 incubator at 5% CO2 and 37° C. for 48 h.
100 μL of prepared CellTiter™-Flour Cell Viability Assay Reagent (1 mLL Assay Buffer; 1 μl GF-AFC Substrate) was added into each well. The plates were shaken for mixing well, and incubated in a CO2 incubator at 5% CO2 and 37° C. for not less than 30 min. The fluorescence value was detected with a microplate reader at a wavelength of 400EX/505EM, and the IC50value was calculated.

## CNC(=O)c1cc(Oc2ccc(NC(=O)Nc3ccc(Cl)c(C(F)(F)F)c3)cc2)ccn1 [Sorafenib, reference compound]
[1]
  Median Survival: >28 days

B1: EEAEAEAEPK+rLZ-8 mutant: recombinant protein: spacer peptide EEAEAEAEPK (SEQ ID NO: 9) linked to rLZ-8 mutant (SEQ ID NO: 13) (protein)
chain: EEAEAEAEPKMSDTALIFRLAWDVKKLSFDYTPNWGRGNPNNFIDTVTFPKVLTDKAYTYRVAVSGRNLGVKPSYAVESKGSQKVNFLEYNSGYGIADTNTIQVFVVDPDTNNDFIIAQWN
modifications: EEAEAEAEPK-rLZ-8 mutant (D70K)
[2]
  IC50, killing effect on lung cancer cell line A549: 1.91 µg/mL
